Measurements from US6410588B1, “Use of cannabinoids as anti-inflammatory agents” (priority 1998, dated 2002).
Entries after “also recorded” stand apart in the source; their conditions may differ. Where two headings read alike, the source gives them in different places.

What was measured:
TNFα production = TNFα production by Thioglycollate induced macrophages; type: cell-based, mouse (C57BL/6); set-up: TNFα production, 6 h / TNFα production, 24 h: unit not given here; details: for inhibition at 2 µg/mL / inhibition at 4 µg/mL / inhibition at 6 µg/mL: Mus musculus, Macrophage
From the text: […] […] IFN-γ and IFN-α were purchased from Boehringer Mannheim, Germany.
Thioglycoiate-elicited peritoneal macrophages from C57BL/6 mice.

[1] = system: Thioglycollate induced macrophages (Mφ); test: viability of macrophages cultured with CBD; type: cell-based, mouse; details: 8 μg/ml CBD; after 48 hr
TNFα release [2] = test: TNFα release by LPS-stimulated human PBMC; type: cell-based; details: for TNF α: LPS 10 ng/ml 24 hours
Protocol: CBD was dissolved in ethanol/DMSO.
Peripheral blood mononuclear cells (PBMC) were isolated from the whole blood of healthy donors by Ficoll Hypaque gradient. […] After this 6 hour pretreatment period, the cells were stimulated with either LPS from Salmonella typhimirium, 10 ng/ml, for 24 hours (for TNF and IL-1β) or with PHA, 5 μg/ml, for 72 hours (for IFNγ) Viability of the PBMC was assessed with the MTT test.
Human PBMC were cultured and stimulated with or without CBD, as described in Materials and Methods. The stimulus for TNF and IL-1 production was LPS, the stimulus for IFNγ production was PHA. The results are the mean of triplicate wells±SEM. ND=not done.

serum TNFα = serum TNFα level after LPS stimulation (bioassay); type: in vivo, mouse (C57BL/6); details: 10 mg/kg (200 μg/mouse) ip or s.c. with 100 μg LPS ip; 90 min
Protocol: After 90 min. the mice were bled and serum TNFα level was determined by bioassay.

spleen cells = test: mixed leukocyte reaction (MLR); type: cell-based, mouse (BALB/c); details: above 4 μg/ml CBD
Protocol: Cultures were pulsed with ^3H-thymidine and harvested 18 hours later.
Spleen cells (1×10^6/well) were co-cultured in triplicate wells of flat-bottom microtiter plates (Nunc), with an equal number of irradiated ([…]) syngeneic or allogeneic splenocytes in a final volume of 200 μl/well. After 3-days incubation, the cells were labelled with ^3H-thymidine (1 μCi/well) and harvested, following an additional incubation of 18 h, as described above.

[3] = system: Thioglycollate-elicited granulocytes; test: viability of granulocytes in the ROI test; type: cell-based, mouse (C57BL/6)
Protocol: Thioglycollate-elicited granulocytes were harvested from C57BL/6 mice by sterile lavage with PBS 18 hrs. after intraperitoneal injection with 1.5 ml thioglycollate medium (1.5 ml in 3% solution). The cells were washed and resuspended at 5×10^5 cells/ml in Hanks' buffered salt solution without phenol red, and distributed at 0.5 ml/tube into luminometer plastic tubes. […] The tube was inserted into luminometer (Biolumate LB 95 oot Berhold Wildbad Germany) which had been prewarmed to 37° C. The granulocyte luminol-enhanced chemiluminescence response to zymosan was considered as the positive control.

TNFα release [4] = test: spontaneous TNF release by murine synovial cells from arthritic mice; type: cell-based, mouse (DBA/1); details: for O.D. (cytotoxicity assay for TNF) / TNF: supernatants after 24 h
Protocol: DBA/1 mice which had been immunized with bovine CII in CFA, to induce CIA, as discussed above, were sacrificed at day 10 of arthritis and the knee joints were removed. Synovial cell cultures were performed as previously described. Briefly, synovial membranes were excised under a dissecting microscope and digested with collagenase A (1 mg/ml) (Boehringer-Mannheim) and DNAase type IV (0.15 mg/ml) (Sigma, Dorset, UK) at 37° C. for 20 minutes, in. the presence of polymyxin B (33 μg/ml) (Sigma). […] Supernatants were collected after 24 h. and stored at −20° C. until measured for cytokines.
Well cytotoxicity assay was used.

TNF = test: human rheumatoid synovial cell TNF production (ELISA); type: cell-based; details: for TNF, mean: 48 hours culture
Protocol: (§1) Synovial membrane tissue was obtained from a patient fulfilling the revised American College of Rheumatology criteria for rheumatoid arthritis who underwent joint replacement surgery. Synovial cell cultures were prepared as described. Briefly, synovial membrane tissue was digested with collagenase type A (1 mg/ml) and DNAase I (0.15 mg/ml) in RPMI 1640 containing 5% FCS for 2 hours at 37° C.
(§2) Similarly, rheumatoid synovial cells spontaneously produce cytokines when cultured in vitro. […] With restricted number of human synovial cells in this sample, the optimal dose for inhibiting TNFα may have been missed.

IL-6 = test: human rheumatoid synovial cell IL-6 production (ELISA); type: cell-based; details: for IL-6, mean: 48 hours culture
Protocol: as §1, §2

anticonvulsant effects = details: in vivo; cited from earlier work
IL-1 = details: cited from earlier work
[5] = LPS 1 μg/ml + IFNγ 10 U/ml, CBD 2 μg/ml, 24 h

C=C(C)[C@@H]1CCC(C)=C[C@H]1c1c(O)cc(CCCCC)cc1O [CBD, Cannabidiol]
TNFα production, 6 h (TNFα production; LPS 1 μg/ml + IFNγ 10 U/ml, CBD 2 μg/ml, 6 h): 744 | % INHIBITION of TNFα production, 24 h (TNFα production; [5]): enhanced 72% | TNFα production, 24 h (TNFα production; [5]): 4578 | TNFα production, 6 h (TNFα production; LPS 1 μg/ml + IFNγ 10 U/ml, CBD 4 μg/ml, 6 h): 478 | TNFα production, 6 h (TNFα production; LPS 1 μg/ml + IFNγ 10 U/ml, CBD 6 μg/ml, 6 h): 548 | TNFα production, 24 h (TNFα production; LPS 1 μg/ml + IFNγ 10 U/ml, CBD 4 (μg/ml), 24 h): 437 | TNFα production, 24 h (TNFα production; LPS 1 μg/ml + IFNγ 10 U/ml, CBD 6 (μg/ml), 24 h): 207 | TNFα production, 6 h (TNFα production; LPS 1 μg/ml, CBD 2 μg/ml, 6 h): 543 | TNFα production, 6 h (TNFα production; LPS 1 μg/ml, CBD 4 μg/ml, 6 h): 271 | TNFα production, 6 h (TNFα production; LPS 1 μg/ml, CBD 6 μg/ml, 6 h): 290 | TNFα production, 24 h (TNFα production; LPS 1 μg/ml, CBD 2 (μg/ml), 24 h): 90 | TNFα production, 24 h (TNFα production; LPS 1 μg/ml, CBD 4 (μg/ml), 24 h): 36 | TNFα production, 24 h (TNFα production; LPS 1 μg/ml, CBD 6 (μg/ml), 24 h): 34 | inhibition at 2 µg/mL (TNFα production; 6 h, LPS 1 μg/ml + IFNγ 10 U/ml, CBD 2 μg/ml, 6 h, read-out: % INHIBITION of TNFα production, 6 h): 0% | inhibition at 4 µg/mL (TNFα production; 6 h, LPS 1 μg/ml + IFNγ 10 U/ml, CBD 4 μg/ml, 6 h, read-out: % INHIBITION of TNFα production, 6 h): 33% | inhibition at 6 µg/mL (TNFα production; 6 h, LPS 1 μg/ml + IFNγ 10 U/ml, CBD 6 μg/ml, 6 h, read-out: % INHIBITION of TNFα production, 6 h): 24% | inhibition at 2 µg/mL (TNFα production; 6 h, LPS 1 μg/ml, CBD 2 μg/ml, 6 h, read-out: % INHIBITION of TNFα production, 6 h): 9% | inhibition at 4 µg/mL (TNFα production; 6 h, LPS 1 μg/ml, CBD 4 μg/ml, 6 h, read-out: % INHIBITION of TNFα production, 6 h): 54% | inhibition at 6 µg/mL (TNFα production; 6 h, LPS 1 μg/ml, CBD 6 μg/ml, 6 h, read-out: % INHIBITION of TNFα production, 6 h): 51% | inhibition at 4 µg/mL (TNFα production; 24 h, LPS 1 μg/ml + IFNγ 10 U/ml, CBD 4 μg/ml, 24 h, read-out: % INHIBITION of TNFα production, 24 h): 84% | inhibition at 6 µg/mL (TNFα production; 24 h, LPS 1 μg/ml + IFNγ 10 U/ml, CBD 6 μg/ml, 24 h, read-out: % INHIBITION of TNFα production, 24 h): 92% | inhibition at 2 µg/mL (TNFα production; 24 h, LPS 1 μg/ml, CBD 2 μg/ml, 24 h, read-out: % INHIBITION of TNFα production, 24 h): 67% | inhibition at 4 µg/mL (TNFα production; 24 h, LPS 1 μg/ml, CBD 4 μg/ml, 24 h, read-out: % INHIBITION of TNFα production, 24 h): 87% | inhibition at 6 µg/mL (TNFα production; 24 h, LPS 1 μg/ml, CBD 6 μg/ml, 24 h, read-out: % INHIBITION of TNFα production, 24 h): 88% | effect on TNFα production (in words) (TNFα production; low concentrations of CBD): enhance TNFα production | effect on TNFα production (in words) (TNFα production; summary of Table 1): inhibits TNFα production | viability of Mφ [1]: **After 48 hr the Mφ cultured with 8 μg/ml CBD were only 70% viable | TNF α (TNFα release [2]; CBD 0.1 μg/ml, mean of triplicate wells ± SEM): 2959 ± 434 pg/mL | TNF α (TNFα release [2]; CBD 1 μg/ml, mean ± SEM): 2503 ± 181 pg/mL | TNF α (TNFα release [2]; CBD 2.5 μg/ml, mean ± SEM): 3071 ± 296 pg/mL | TNF α (TNFα release [2]; CBD 5 μg/ml, mean ± SEM): 4152 ± 499 pg/mL | TNF α (TNFα release [2]; CBD 10 μg/ml, mean ± SEM): 10,964 ± 1714 pg/ml | TNF α (TNFα release [2]; CBD 20 μg/ml, mean ± SEM): 15,071 ± 2594 pg/ml | TNF α (TNFα release [2]; CBD 30 μg/ml, mean ± SEM): 20,824 ± 1046 pg/ml | effect on LPS-induced TNFα release (in words) (TNFα release [2]; higher concentrations of CBD): increased their release | effect on LPS-induced TNFα release (in words) (TNFα release [2]; lower concentrations of CBD (0.1 to 5 μg/ml)): significantly suppressed | serum TNFα level (in words) (serum TNFα): decreases serum TNFα production; also recorded: reduces serum TNFα levels | 3H-thymidine uptake in MLR (spleen cells): slight decrease | cell viability at the end of the experiment ([3]; CBD 6 μg/ml): All cells were viable | cells available (viable) ([3]; after 1-2 hours of CBD treatment, 6 μg/ml): about 100% | O.D. (cytotoxicity assay for TNF) (TNFα release [4]; CBD 1 μg/ml): 0.190 ± 0.003 | TNF (TNFα release [4]; CBD 1 μg/ml): >1000 pg/mL | O.D. (cytotoxicity assay for TNF) (TNFα release [4]; CBD 2.5 μg/ml): 0.193 ± 0.004 | TNF (TNFα release [4]; CBD 2.5 μg/ml): >1000 pg/mL | O.D. (cytotoxicity assay for TNF) (TNFα release [4]; CBD 5 μg/ml): 0.422 ± 0.251 | TNF (TNFα release [4]; CBD 5 μg/ml): 100 pg/mL | O.D. (cytotoxicity assay for TNF) (TNFα release [4]; CBD 10 μg/ml): 0.922 ± 0.103 | TNF (TNFα release [4]; CBD 10 μg/ml): 2 pg/mL | TNF (TNFα release [4]; CBD 20 μg/ml): <0.01 pg/mL | O.D. (cytotoxicity assay for TNF) (TNFα release [4]; CBD 50 μg/ml): 1.163 ± 0.119 | TNF (TNFα release [4]; CBD 50 μg/ml): <0.01 pg/mL | spontaneous TNF release (in words) (TNFα release [4]; CBD added to in vitro cultures): dose-dependent suppression of TNF release | TNF, mean (TNF; CBD 0.1 μg/ml): 1963 pg/mL | TNF, mean (TNF; CBD 1 μg/ml): 2089 pg/mL | TNF, mean (TNF; CBD 20 μg/ml): 2271 pg/mL | TNFa release (in words) (TNF; first initial experiment): not suppressed | IL-6 release (in words) (IL-6): dose-dependent inhibition | IL-6, mean (IL-6; CBD 0.1 μg/ml): 281 ng/mL | IL-6, mean (IL-6; CBD 1 μg/ml): 326 ng/mL | IL-6, mean (IL-6; CBD 20 μg/ml): 125 ng/mL | anticonvulsant effects (anticonvulsant effects): anticonvulsant effects | IL-1 production (IL-1): decreased
